According to BindingDB's records for doi:10.7270/Q2DF6PMF (Nmmlsc, 2007):
pIC50, pKi: −log10 of the molar value.

These compounds were tested against T1, N-formyl peptide receptor 2 (Homo sapiens, UniProt P25090) (assay: FPRL1 binding inhibitor potency, dose response, cell-based, FPR counter-screen, fluorescent ligand (AID 520)). Settings: not given.
T1 sequence (P25090 whole entry): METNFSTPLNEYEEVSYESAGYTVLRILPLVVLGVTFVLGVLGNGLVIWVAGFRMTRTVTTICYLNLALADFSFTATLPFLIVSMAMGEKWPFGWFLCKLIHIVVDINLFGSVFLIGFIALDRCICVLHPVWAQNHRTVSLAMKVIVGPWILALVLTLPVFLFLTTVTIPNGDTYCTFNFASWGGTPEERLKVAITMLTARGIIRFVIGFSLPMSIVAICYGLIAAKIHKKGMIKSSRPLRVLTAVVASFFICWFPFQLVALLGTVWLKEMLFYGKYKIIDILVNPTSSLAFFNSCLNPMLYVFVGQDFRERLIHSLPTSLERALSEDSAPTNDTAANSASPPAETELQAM

SMILES | pIC50 | pKi
O=C(NCc1cccnc1)C1c2ccccc2C(=O)N1C1CCCCCC1 (stereo unspecified) [2-cycloheptyl-3-keto-N-(3-pyridylmethyl)isoindoline-1-carboxamide] | < 4.18 | 
Cc1nnc(SCc2cnc(-c3ccccc3)o2)nc1O [MLS000061907] | < 4.18 | 
CCOC(=O)Nc1ccc(OC)cc1S(=O)(=O)N1CCCCC1 [MLS000048808] | < 4.18 | 
COc1cccc2cc(C(=O)C3C(=O)C(=O)N(Cc4ccco4)C3c3cccnc3)oc12 (stereo unspecified) [1-(2-furanylmethyl)-4-hydroxy-3-[(7-methoxy-2-benzofuranyl)-oxomethyl]-2-(3-pyridinyl)-2H-pyrrol-5-one] | < 4.18 | < 4.39
Cc1cc2oc(C(=O)NC3CCS(=O)(=O)C3)c(C)c2cc1C (stereo unspecified) [MLS000063255] | < 4.18 | 
CCCCn1c(NC(=O)CC)c(C#N)c2nc3ccccc3nc21 [MLS000079918] | < 4.18 | 
CC(C)CN(CC(C)C)C(=O)CS(=O)(=O)Cc1ccccc1 [2-(benzylsulfonyl)-N,N-diisobutylacetamide] | < 4.18 | 
CCOC(=O)N1CCC(NC(=O)c2cc(C(=O)Nc3ccc(OC)c(OC)c3)ccc2CO)CC1 [4-[[5-[(3,4-dimethoxyphenyl)carbamoyl]-2-methylol-benzoyl]amino]piperidine-1-carboxylic acid ethyl ester] | < 4.18 | 
COC(=O)c1[nH]c(C)c(C(=O)C2C(=O)C(=O)N(CCCN3CCOCC3)C2c2ccccn2)c1C (stereo unspecified) [methyl 4-{[4-hydroxy-1-[3-(4-morpholinyl)propyl]-5-oxo-2-(2-pyridinyl)-2,5-dihydro-1H-pyrrol-3-yl]carbonyl}-3,5-dimethyl-1H-pyrrole-2-carboxylate] | < 4.18 | < 4.39
COC(=O)COc1ccc2c(=O)c(Oc3ccccc3)c(C)oc2c1 [2-(4-keto-2-methyl-3-phenoxy-chromen-7-yl)oxyacetic acid methyl ester] | < 4.18 | 
Cc1ccc(C2C(C(=O)c3ccc(Cl)cc3)C(=O)C(=O)N2CC2CCCO2)o1 (stereo unspecified) [(4Z)-4-[(4-chlorophenyl)-hydroxy-methylene]-5-(5-methyl-2-furyl)-1-(tetrahydrofurfuryl)pyrrolidine-2,3-quinone] | < 4.18 | < 4.39
CC1=NC(C)=C(C#N)C(c2ccc3ncccc3c2)C1C#N (stereo unspecified) | < 4.18 | < 4.39
COc1cc(C2C(C(=O)c3ccc(C)o3)C(=O)C(=O)N2CCc2ccccc2)ccc1O (stereo unspecified) [2-(3-methoxy-4-oxidanyl-phenyl)-3-(5-methylfuran-2-yl)carbonyl-4-oxidanyl-1-(2-phenylethyl)-2H-pyrrol-5-one] | < 4.18 | < 4.39
COc1ccc(C(=O)C2C(=O)C(=O)N(Cc3ccco3)C2c2ccc(OC)cc2OC)cc1 (stereo unspecified) [(4E)-5-(2,4-dimethoxyphenyl)-1-(2-furanylmethyl)-4-[hydroxy-(4-methoxyphenyl)methylidene]pyrrolidine-2,3-dione] | < 4.18 | < 4.39
CN(C)c1nc(N(C)C)nc(N(C)C)n1 [ALTRETAMINE] | < 4.18 | 
COc1ccc(OC)c(C2C(C(=O)c3cccs3)C(=O)C(=O)N2c2cc(C)on2)c1 (stereo unspecified) [2-(2,5-dimethoxyphenyl)-1-(5-methyl-1,2-oxazol-3-yl)-4-oxidanyl-3-thiophen-2-ylcarbonyl-2H-pyrrol-5-one] | < 4.18 | < 4.39
COc1ccc(C)cc1NC(=O)C1CCCCC1C(=O)O (stereo unspecified) [2-[(2-methoxy-5-methyl-phenyl)carbamoyl]cyclohexane-1-carboxylic acid] | < 4.18 | 
COc1ccc(C2C(C(=O)c3ccco3)C(=O)C(=O)N2CCc2ccccc2)cc1OC (stereo unspecified) [2-(3,4-dimethoxyphenyl)-3-(furan-2-carbonyl)-4-hydroxy-1-(2-phenylethyl)-2H-pyrrol-5-one] | < 4.18 | < 4.39
COC(=O)[C@H](C(C)C)n1c(C)c(C(C)=O)c(C(C)=O)c1C [(2S)-2-(3,4-diacetyl-2,5-dimethyl-1-pyrrolyl)-3-methylbutanoic acid methyl ester] | < 4.18 | 
COc1cccc(C(=O)C2C(=O)C(=O)N(Cc3cccnc3)C2c2ccco2)c1 (stereo unspecified) [(4Z)-5-(2-furanyl)-4-[hydroxy-(3-methoxyphenyl)methylidene]-1-(3-pyridinylmethyl)pyrrolidine-2,3-dione] | < 4.18 | < 4.39
CN1CCN(CCCNC(=O)Nc2cccc3ccccc23)CC1 [1-[3-(4-methyl-1-piperazinyl)propyl]-3-(1-naphthalenyl)urea] | < 4.18 | 
CCC(=O)Nc1c(C#N)c2nc3ccccc3nc2n1-c1ccccc1C [SMR000039884] | < 4.18 | 
O=S(=O)(Nc1cccc2ncccc12)c1cccs1 [MLS000057468] | < 4.18 | 

Next, values leading:

pIC50 | pKi | SMILES
< 4.18 | < 4.39 | CCCOc1ccc(C2C(C(=O)c3ccc(C)o3)C(=O)C(=O)N2Cc2cccnc2)cc1 (stereo unspecified) [3-(5-methylfuran-2-yl)carbonyl-4-oxidanyl-2-(4-propoxyphenyl)-1-(pyridin-3-ylmethyl)-2H-pyrrol-5-one]
< 4.18 | < 4.39 | O=C1C(=O)N(c2ncccn2)C(c2ccc(Cl)cc2)C1C(=O)c1ccco1 (stereo unspecified) [2-(4-chlorophenyl)-3-(furan-2-carbonyl)-4-hydroxy-1-pyrimidin-2-yl-2H-pyrrol-5-one]
< 4.18 | < 4.39 | O=C1C(=O)N(CCOCCO)C(c2cccs2)C1C(=O)c1cccs1 (stereo unspecified) [1-[2-(2-hydroxyethyloxy)ethyl]-4-oxidanyl-2-thiophen-2-yl-3-thiophen-2-ylcarbonyl-2H-pyrrol-5-one]
< 4.18 |  | CCC(Sc1nc2c(c(=O)[nH]1)CCC2)C(=O)Nc1cccc(OC)c1 (stereo unspecified) [SMR000028729]
< 4.18 | < 4.39 | O=c1c(CC[S+]([O-])c2ccccc2)c(O)n(-c2ccccc2)n1-c1ccccc1 (stereo unspecified) [1,2-Diphenyl-3,5-dioxo-4-(2-phenylsulfinylethyl)pyrazolidine]
< 4.18 |  | Cc1cc(SCC(N)=O)nc(SCC(=O)c2ccccc2)n1 [2-(6-methyl-2-phenacylsulfanylpyrimidin-4-yl)sulfanylacetamide]
< 4.18 |  | CCc1nn2c(=O)cc(CSc3nc4sc5c(c4c(=O)n3C)CCCC5)nc2s1 [2-[(2-ethyl-5-keto-[1,3,4]thiadiazolo[3,2-a]pyrimidin-7-yl)methylthio]-3-methyl-5,6,7,8-tetrahydrobenzothiopheno[2,3-d]pyrimidin-4-one]
< 4.18 |  | Cc1nc2c(-c3ccc(F)cc3)c(C)nn2c(C)c1CCC(=O)NC(C)CCc1ccco1 (stereo unspecified) [3-[3-(4-fluorophenyl)-2,5,7-trimethyl-6-pyrazolo[1,5-a]pyrimidinyl]-N-[4-(2-furanyl)butan-2-yl]propanamide]
< 4.18 |  | CC(C)OC(=O)c1cc(NC(=O)C2C3CCC(O3)C2C(=O)O)cc(C(=O)OC(C)C)c1 (stereo unspecified)
< 4.18 | < 4.39 | O=C1Nc2ccccc2/C1=C1/SC(=S)N(CC2CCCO2)C1=O (stereo unspecified) [(5Z)-5-(2-ketoindolin-3-ylidene)-3-(tetrahydrofurfuryl)-2-thioxo-thiazolidin-4-one]
< 4.18 | < 4.39 | Cc1cc(N2C(=O)C(=O)C(C(=O)c3ccco3)C2c2cccnc2)no1 (stereo unspecified) [3-(furan-2-carbonyl)-4-hydroxy-1-(5-methyl-1,2-oxazol-3-yl)-2-pyridin-3-yl-2H-pyrrol-5-one]
< 4.18 |  | O=C(Nc1ccc(Nc2ccccc2)cc1)c1ccc(Br)o1 [5-bromanyl-N-(4-phenylazanylphenyl)furan-2-carboxamide]
< 4.18 | < 4.39 | Cc1ccc(C(=O)C2C(=O)C(=O)N(c3cc(C)on3)C2c2cccc(Br)c2)cc1 (stereo unspecified) [(4E)-5-(3-bromophenyl)-1-(5-methyl-1,2-oxazol-3-yl)-4-[(4-methylphenyl)-oxidanyl-methylidene]pyrrolidine-2,3-dione]
5.16 |  | CC(=O)OCCNc1cc(N2CCN(C)CC2)c2noc3c2c1C(=O)c1ccccc1-3 [MLS000118373]
< 4.18 | < 4.39 | CCOc1cccc(C(=O)C2C(=O)C(=O)N(Cc3ccco3)C2c2ccncc2)c1 (stereo unspecified) [(4Z)-1-(2-furfuryl)-4-[hydroxy(m-phenetyl)methylene]-5-(4-pyridyl)pyrrolidine-2,3-quinone]
< 4.18 | < 4.39 | COCCCN1C(=O)C(=O)C(C(=O)c2ccco2)C1c1ccccc1 (stereo unspecified) [3-(furan-2-carbonyl)-4-hydroxy-1-(3-methoxypropyl)-2-phenyl-2H-pyrrol-5-one]
< 4.18 |  | Cc1ccc(Nc2ccc(C(=O)O)cc2N)cc1 [3-amino-4-(4-methylanilino)benzoic acid]
< 4.18 |  | OCc1nc2ccccc2n1CC(O)Cn1ccc2ccccc21 (stereo unspecified) [1-[2-(hydroxymethyl)-1-benzimidazolyl]-3-(1-indolyl)-2-propanol]
< 4.18 |  | CC1(C)S[C@@H]2[C@H](NC(=O)Cc3ccccc3)C(=O)N2[C@H]1C(=O)O [MLS000069426]
< 4.18 |  | COc1ccccc1-c1c(C)oc2cc(OC(=O)c3ccco3)ccc2c1=O [[3-(2-methoxyphenyl)-2-methyl-4-oxidanylidene-chromen-7-yl] furan-2-carboxylate]
< 4.18 | < 4.39 | COc1cccc(C2C(C(=O)c3ccc(OC)c(OC)c3)C(=O)C(=O)N2c2cc(C)on2)c1 (stereo unspecified) [(4E)-4-[(3,4-dimethoxyphenyl)-hydroxy-methylene]-5-(3-methoxyphenyl)-1-(5-methylisoxazol-3-yl)pyrrolidine-2,3-quinone]
< 4.18 |  | CCCCNC(=O)c1sc(=S)n2c1[nH]c(=O)c1ccccc12 [N-butyl-5-oxo-1-thioxo-4,5-dihydro[1,3]thiazolo[3,4-a]quinazoline-3-carboxamide]
4.82 |  | Nc1ccc(Nc2ccccc2N)cc1 [(2-aminophenyl)-(4-aminophenyl)amine]

Same assay, conditions: inactive by the depositor's call

pIC50 | SMILES
4.30 | CCOC(=O)N1CCN(c2cc(NCCC(=O)O)c3c4c(onc24)-c2ccccc2C3=O)CC1 [MLS000086406]
